This is an account of results in ChEMBL document CHEMBL1201862, “PubChem BioAssay data set” (2004).

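96-well plates; 48 h exposure; 5 concentrations. Endpoints by linear interpolation between flanking doses. Not reached: highest tested concentration assigned. At the GI50, growth is halved.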 Active and inactive are the calls of the source. Cut-off read from the data, not from the text of the source: active = GI50 up to about 1.1 µM and inactive = higher.

Test in all cases: growth of human tumour cells (NCI), 48 h
Assay [1] relates to TK-10.
Assay [2] has as its system HCT-15.
The subject of assay [3] is NCI/ADR-RES.
Assay [4] relates to NCI-H226.
For assay [5], the system named is OVCAR-8.
Assay [6] has as its system HOP-62.
Assay [7] deals with SNB-19.
In assay [8] the test system is DU-145.
Assay [9] has as its system SNB-75.
The test system of assay [10] is RXF 393.
In assay [11] the test system is Hs-578T.
Assay [12] deals with NCI-H460.
Assay [13] relates to UACC-257.
For assay [14], the system named is T47D.
The test system of assay [15] is CAKI-1.
The test system of assay [16] is EKVX.
Assay [17] has as its system SF-295.
Assay [18] deals with MCF7.
For assay [19], the system named is LOX IMVI.
For assay [20], the system named is MDA-N.

On to `CC(=O)OC(Cc1cc(C=C(C(F)(F)F)C(F)(F)F)cc(C)n1)(C(F)(F)F)C(F)(F)F`, for which the GI50 in [1] was 2.8 µM (inactive); in assay [2] it was 0.975 µM; in assay [3], 2.28 µM (inactive); in assay [4] it was 1.78 µM (inactive); in [5] it was 1.04 µM (active); in assay [6] it was 1.79 µM (inactive). For the same compound, the GI50 in assay [7] is 1.88 µM (inactive); in assay [8] it was 2.48 µM (inactive); in [9], 2.03 µM (inactive); in assay [10] it was 0.855 µM (active); in [11], 1.95 µM (inactive); in assay [12] it was 1.99 µM (inactive). Also, the GI50 is 1.74 µM (inactive) in [13]; 1.9 µM (inactive) in assay [14]; 1.77 µM (inactive) in assay [15]; 2.01 µM (inactive) in assay [16]; 2.82 µM (inactive) in assay [17]; 0.14 µM (active) in assay [18]. The values for the GI50 in assay [19] and in [20] were 1.14 µM (inactive) and 1.55 µM (inactive), respectively.

With `O=C(O)c1ccccc1C1CCCc2c1[nH]c1ccccc21` (stereo not given), the GI50 is > 100 µM (inactive) in [1]; 44.4 µM in assay [2]; 66.1 µM (inactive) in assay [3]; > 100 µM (inactive) in [4]; 75.7 µM (inactive) in assay [5]; > 100 µM (inactive) in assay [6]. Moreover, the GI50 was > 100 µM (inactive) in [7]; > 100 µM (inactive) in [8]; 12.7 µM (inactive) in assay [9]; 22.3 µM (inactive) in assay [10]; 86.9 µM (inactive) in assay [11]; 69.7 µM (inactive) in [12]. The GI50 was 69.7 µM (inactive) in assay [13]; 11.4 µM (inactive) in [14]; 72.6 µM (inactive) in assay [15]; 20.3 µM (inactive) in assay [16]; 57 µM (inactive) in assay [17]; 30.1 µM (inactive) in assay [18]. Besides, the GI50 in assay [19] is 44.2 µM (inactive); in [20], 27.6 µM (inactive).

As for `CCCCCCCCCCCCCCCCCCNc1ccn(C2OC(COP(=O)(O)OCC3OC(n4cc(F)c(NCCCCCCCCCCCCCCCCCC)nc4=O)CC3O)C(O)C2O)c(=O)n1` (stereo not given), the GI50 in [1] was > 100 µM (inactive); in [2] it was greater than 100 µM; in [3], > 100 µM (inactive); in [4], > 100 µM (inactive); in assay [5] it was 43.6 µM (inactive); in assay [6], > 100 µM (inactive). Further, the GI50 in [7] was 66.8 µM (inactive); in assay [8], > 100 µM (inactive); in assay [9], > 100 µM (inactive); in [10], > 100 µM (inactive); in assay [11], > 100 µM (inactive); in assay [12] it was > 100 µM (inactive). Further, the GI50 in assay [13], in assay [14], in [15], in assay [16], in assay [17] and in assay [18] was > 100 µM (inactive) each time. In addition, the GI50 in [19] and in [20] was > 100 µM (inactive) each time.

With `CC[C@@]1(O)C(=O)OCc2c1cc1n(c2=O)Cc2c-1nc1ccccc1c2/C=N\NC(=O)C1CCCN1` (stereo not given in full), the GI50 is 19.4 µM (inactive) in assay [1]; 1.31 µM in [2]; 0.513 µM (active) in [3]; 0.117 µM (active) in [4]; 0.258 µM (active) in assay [5]; < 0.0196 µM (active) in assay [6]. In addition, the GI50 in assay [7] is < 0.0209 µM (active); in [8], 0.133 µM (active); in [9], 0.104 µM (active); in assay [10], 0.364 µM (active); in assay [11], 22.5 µM (inactive); in assay [12], 0.266 µM (active). The GI50 in assay [13] is 3.01 µM (inactive); in [14], 0.0135 µM (active); in [15] it was 0.254 µM (active); in [16], 9.55 µM (inactive); in assay [17] it was 0.386 µM (active); in [18], < 0.0177 µM (active). For the same compound, the values for the GI50 in assay [19] and in assay [20] were 0.09 µM (active) and 1.8 µM (inactive), respectively.

Regarding `Cc1nc2c(-c3ccccc3)[nH]c(C)c2c(=O)o1`, the GI50 in assay [1] is > 100 µM (inactive); in assay [2], 30.8 µM; in [3], > 100 µM (inactive); in assay [4], 87.5 µM (inactive); in [5] it was 41.5 µM (inactive); in assay [6], 33.3 µM (inactive). For the same compound, the GI50 in [7] was > 100 µM (inactive); in assay [8], 76.2 µM (inactive); in assay [9] it was 23.9 µM (inactive); in [10] it was 35.9 µM (inactive); in assay [11], > 100 µM (inactive); in assay [12] it was > 100 µM (inactive). Moreover, the GI50 is > 100 µM (inactive) in [13]; 44.2 µM (inactive) in assay [14]; 37.2 µM (inactive) in assay [15]; > 100 µM (inactive) in assay [16]; 79.6 µM (inactive) in assay [17]; 1.39 µM (inactive) in assay [18]. The GI50 was 42.5 µM (inactive) in [19] and 45.6 µM (inactive) in [20].

In the case of `CNC(=O)OCc1c(COC(=O)NC)c(C)n(-c2ccc(Br)cc2)c1C`, the GI50 in [1] was 11 µM (inactive); in assay [2], 14 µM; in assay [3], 16.3 µM (inactive); in assay [4], 1.24 µM (inactive); in [5], 12.1 µM (inactive); in assay [6], 13.2 µM (inactive). The GI50 was 18.7 µM (inactive) in assay [7]; 14.3 µM (inactive) in assay [8]; 4.17 µM (inactive) in assay [9]; 5.37 µM (inactive) in assay [10]; 16.2 µM (inactive) in assay [11]; 8.2 µM (inactive) in [12]. Moreover, the GI50 is 15.3 µM (inactive) in assay [13]; 10.2 µM (inactive) in assay [14]; 4.02 µM (inactive) in assay [15]; 27.3 µM (inactive) in assay [16]; 13.1 µM (inactive) in assay [17]; 11.3 µM (inactive) in [18]. Further, the GI50 in assay [19] is 6.24 µM (inactive); in [20], 15.7 µM (inactive).

In the case of `C/C=C(/C)C(=O)O[C@H]1[C@H](O)CC(c2ccc3c(c2O)C(=O)C2=C(O)C4(OC)C(=O)C(C(N)=O)=C(O)[C@H](CC(=O)c5ccccc5O)C4CC2[C@@]3(C)OC)O[C@@H]1C` (stereo not given in full), the GI50 in assay [1] is 0.00817 µM (active); in assay [2] it was 0.00507 µM; in assay [3], 8.43 µM (inactive); in [4], 0.0202 µM (active); in assay [5], 0.00475 µM (active); in assay [6], 0.00331 µM (active). Also, the GI50 in assay [7] is 0.00433 µM (active); in assay [8], 0.0265 µM (active); in assay [9], 0.0198 µM (active); in assay [10], 0.0198 µM (active); in assay [11] it was 0.0041 µM (active); in [12] it was 0.00178 µM (active). Moreover, the GI50 is 0.0165 µM (active) in assay [13]; 0.0113 µM (active) in assay [14]; 0.0124 µM (active) in assay [15]; 0.0396 µM (active) in assay [16]; 0.017 µM (active) in assay [17]; 0.00363 µM (active) in [18]. For the same compound, the values for the GI50 in assay [19] and in assay [20] were 0.0035 µM (active) and 0.0272 µM (active), respectively.

Regarding `CCNC(=O)/C(=C/c1ccc(OC)cc1)c1cc(OC)c(OC)c(OC)c1`, the GI50 in assay [1] is 20.5 µM (inactive); in assay [2] it was 4.11 µM; in assay [3] it was 3 µM (inactive); in assay [4], 40.7 µM (inactive); in [5] it was 21.3 µM (inactive); in assay [6] it was 10.9 µM (inactive). Further, the GI50 in [7] is 12.5 µM (inactive); in assay [8], 13.3 µM (inactive); in [9], 4.97 µM (inactive); in [10], 1.95 µM (inactive); in assay [11] it was 5.26 µM (inactive); in [12], 5.31 µM (inactive). Moreover, the GI50 in assay [13] is 13.5 µM (inactive); in assay [14], > 20.4 µM (inactive); in assay [15] it was 6.03 µM (inactive); in assay [16], 64.1 µM (inactive); in assay [17], 2.98 µM (inactive); in assay [18], 4.84 µM (inactive). Also, the results for the GI50 in assay [19] and in assay [20] were 8.39 µM (inactive) and 1.58 µM (inactive), respectively.

`CCCCCCOc1ccc(C(=O)NO)cc1`: the GI50 in assay [1] is 17.1 µM (inactive); in assay [2] it was 1.61 µM; in assay [3] it was 3.08 µM (inactive); in assay [4], 9.46 µM (inactive); in assay [5] it was 5.08 µM (inactive); in assay [6], 11.8 µM (inactive). In addition, the GI50 was 17.8 µM (inactive) in assay [7]; 8.05 µM (inactive) in assay [8]; 13.4 µM (inactive) in assay [9]; 11.3 µM (inactive) in assay [10]; 19.6 µM (inactive) in assay [11]; 4.68 µM (inactive) in [12]. Also, the GI50 is 22.8 µM (inactive) in assay [13]; 5.83 µM (inactive) in assay [14]; 4.44 µM (inactive) in assay [15]; 15 µM (inactive) in [16]; 8.26 µM (inactive) in [17]; 25.8 µM (inactive) in assay [18]. Moreover, the GI50 is 2.17 µM (inactive) in assay [19] and 13.2 µM (inactive) in [20].

For `CC(C)C(=O)/C=C/c1ccc(Cl)cc1Cl`, the GI50 in assay [1] was 14.2 µM (inactive); in assay [2], 12.2 µM; in assay [3], 20.1 µM (inactive); in [4], 13.2 µM (inactive); in [5], 10.5 µM (inactive); in assay [6] it was 18.5 µM (inactive). Also, the GI50 is 15.8 µM (inactive) in [7]; 14.2 µM (inactive) in assay [8]; 14.4 µM (inactive) in assay [9]; 8.79 µM (inactive) in assay [10]; 3.51 µM (inactive) in assay [11]; 11.3 µM (inactive) in assay [12]. The GI50 is 13.3 µM (inactive) in assay [13]; 13 µM (inactive) in [14]; 12.2 µM (inactive) in [15]; 16.8 µM (inactive) in [16]; 16.9 µM (inactive) in assay [17]; 3.62 µM (inactive) in [18]. Further, the values for the GI50 in assay [19] and in [20] were 3.55 µM (inactive) and 2.96 µM (inactive), respectively.
